From the RepoRT retention time repository (doi:10.1038/s41586-021-03707-9)

Experiments:
[1] = Waters ACQUITY UPLC BEH C18, 100 × 2.1 mm, 1.7 µm, 40 °C, 0.28 mL/min, estimated dead time 0.63 min; A: water + 6.5 mM ammonium hydroxide; B: methanol + 6.5 mM ammonium hydroxide; gradient (min/%B) 0/0.5 4/70 4.5/98 5.4/98; conditions: stereoisomer not certain
[2] = RP, Waters ACQUITY UPLC HSS C18, 100 × 2.1 mm, 1.7 µm, 40 °C, 0.35 mL/min, estimated dead time 0.63 min; A: water + 0.1% formic acid; B: methanol + 0.1% formic acid; gradient (min/%B) 0/0.5 4/70 4.5/98 5.4/98; conditions: stereoisomer not certain

CC(O)CC(=O)O (stereo not given) showed an LC retention time [1] of 0.804 min and an LC retention time [2] of 0.799 min.

For O=C(O)c1ccc(O)cc1, the LC retention time [1] was 0.892 min and the LC retention time [2] was 3.1 min.

Work on OCc1ccccc1OC1OC(CO)C(O)C(O)C1O (stereo not given) yielded an LC retention time [1] of 2.89 min and an LC retention time [2] of 2.82 min.

NC(=O)NCCCC(N)C(=O)O (stereo not given) gave an LC retention time [1] of 0.796 min and an LC retention time [2] of 0.766 min.

Cc1ccc(O)c(O)c1 gave an LC retention time [1] of 3.87 min and an LC retention time [2] of 3.49 min.

With COc1ccc(OC)c(C(O)C(C)N)c1 (stereo not given) the LC retention time [1] was 3.99 min and the LC retention time [2] was 3.14 min.

Compound Cc1ccc(S(=O)(=O)O)cc1 has an LC retention time [1] of 2.67 min and an LC retention time [2] of 3 min.

For CC12CCC(=O)C=C1CCC1C2C(O)CC2(C)C1CCC2(O)C(=O)CO (stereo not given), the LC retention time [1] was 5.22 min and the LC retention time [2] was 5.02 min.

In the case of CCCCCCSCC(NC(=O)CCC(N)C(=O)O)C(=O)NCC(=O)O (stereo not given), the LC retention time [1] is reported as 4.57 min and the LC retention time [2] is reported as 4.88 min.

With O=C(O)c1ccoc1 the LC retention time [1] was 0.886 min and the LC retention time [2] was 3.35 min.

Work on CNCC(O)c1ccc(O)cc1 (stereo not given) yielded an LC retention time [1] of 1.96 min and an LC retention time [2] of 0.855 min.

With CC(=O)NCC(=O)O the LC retention time [1] was 0.78 min and the LC retention time [2] was 1.13 min.

Work on NC(N)=NCCCC(=O)O yielded an LC retention time [1] of 0.91 min and an LC retention time [2] of 1.11 min.

In the case of O=C(O)c1ccc(O)c(O)c1O, the LC retention time [1] is reported as 0.832 min and the LC retention time [2] is reported as 2.59 min.

Compound CC(=O)NC(CC(C)C)C(=O)O (stereo not given) has an LC retention time [1] of 2.73 min and an LC retention time [2] of 3.9 min.

Work on NCCCCC(=O)O yielded an LC retention time [1] of 0.812 min and an LC retention time [2] of 0.909 min.

CN(C)CCc1ccc(O)cc1 gave an LC retention time [1] of 3.89 min and an LC retention time [2] of 1.82 min.

Work on NC(=O)C1CCCN1C(=O)C(Cc1cnc[nH]1)NC(=O)C1CCC(=O)N1 (stereo not given) yielded an LC retention time [1] of 2.36 min and an LC retention time [2] of 1.76 min.

In the case of O=C(O)CNC(=O)CCc1ccccc1, the LC retention time [1] is reported as 3.32 min and the LC retention time [2] is reported as 2.34 min.

Work on COc1ccc2[nH]cc(CCNC(C)=O)c2c1 yielded an LC retention time [1] of 4.19 min and an LC retention time [2] of 4.05 min.

Compound CSCC1OC(n2cnc3c(N)ncnc32)C(O)C1O (stereo not given) has an LC retention time [1] of 3.51 min and an LC retention time [2] of 2.85 min.

NCC(O)c1ccccc1 (stereo not given) showed an LC retention time [1] of 3.07 min and an LC retention time [2] of 2.04 min.

With CC(=O)OCC(N)C(=O)O (stereo not given) the LC retention time [1] was 0.876 min and the LC retention time [2] was 0.854 min.

In the case of O=C1OC(C(O)CO)C(O)C1O (stereo not given), the LC retention time [1] is reported as 0.822 min and the LC retention time [2] is reported as 0.804 min.

CN1CC(=O)NC1=N showed an LC retention time [1] of 0.861 min and an LC retention time [2] of 0.77 min.

O=c1ccn(C2CC(O)C(COP(=O)(O)O)O2)c(=O)[nH]1 (stereo not given) showed an LC retention time [1] of 0.813 min and an LC retention time [2] of 1.35 min.

Work on O=C(O)c1cc(=O)[nH]c(=O)[nH]1 yielded an LC retention time [1] of 0.811 min and an LC retention time [2] of 1.01 min.

Work on O=[N+]([O-])c1ccc(O)cc1 yielded an LC retention time [1] of 2.41 min and an LC retention time [2] of 4.18 min.

In the case of Cc1cn(C2CC(O)C(CO)O2)c(=O)[nH]c1=O (stereo not given), the LC retention time [1] is reported as 2.34 min and the LC retention time [2] is reported as 2.29 min.

For NC(Cc1c[nH]c2ccc(O)cc12)C(=O)O (stereo not given), the LC retention time [1] was 1.9 min and the LC retention time [2] was 1.97 min.

COc1ccc(O)c(C(=O)O)c1 gave an LC retention time [1] of 2.84 min and an LC retention time [2] of 4.48 min.

For C[n+]1cccc(C(=O)[O-])c1, the LC retention time [1] was 0.848 min and the LC retention time [2] was 0.822 min.

For COc1cc(C(=O)O)ccc1O, the LC retention time [1] was 0.869 min and the LC retention time [2] was 3.33 min.

Compound Cc1c[nH]c(=O)[nH]c1=O has an LC retention time [1] of 1.94 min and an LC retention time [2] of 1.88 min.

NC(Cc1ccc(O)c(O)c1)C(=O)O (stereo not given) gave an LC retention time [1] of 1.1 min and an LC retention time [2] of 1.29 min.

O=C(O)CCc1c[nH]c2ccccc12 gave an LC retention time [1] of 3.13 min and an LC retention time [2] of 4.63 min.

O=C(O)CCCCc1ccccc1 showed an LC retention time [1] of 4.37 min and an LC retention time [2] of 5 min.

For O=C(O)c1ccncc1, the LC retention time [1] was 0.867 min and the LC retention time [2] was 0.877 min.

O=c1cc[nH]c(=O)[nH]1 showed an LC retention time [1] of 1.19 min and an LC retention time [2] of 1.18 min.

OCC1OC(OC2C(CO)OC(O)(CO)C2O)C(O)C(O)C1O (stereo not given) gave an LC retention time [1] of 0.859 min and an LC retention time [2] of 0.799 min.

CC(=O)c1ccc(O)cc1O gave an LC retention time [1] of 3.05 min and an LC retention time [2] of 4.09 min.

For NC1(C(=O)O)CC1, the LC retention time [1] was 0.778 min and the LC retention time [2] was 0.779 min.

For NC(=O)NC1NC(=O)NC1=O (stereo not given), the LC retention time [1] was 0.799 min and the LC retention time [2] was 0.855 min.

In the case of Cn1c(=O)[nH]c2[nH]c(=O)n(C)c2c1=O, the LC retention time [1] is reported as 1.81 min and the LC retention time [2] is reported as 2.78 min.

In the case of O=C1NS(=O)(=O)c2ccccc21, the LC retention time [1] is reported as 2.3 min and the LC retention time [2] is reported as 2.66 min.

For O=C(O)CCCCCCCCCO, the LC retention time [1] was 3.96 min and the LC retention time [2] was 5.06 min.

Work on Nc1nc2nccnc2c(=O)[nH]1 yielded an LC retention time [1] of 1.57 min and an LC retention time [2] of 1.73 min.

In the case of CC1=CC(=O)NS(=O)(=O)O1, the LC retention time [1] is reported as 1.78 min and the LC retention time [2] is reported as 2.12 min.

With O=C(O)C1CCCCN1 (stereo not given) the LC retention time [1] was 1.14 min and the LC retention time [2] was 1.15 min.

O=C(O)c1ccc(=O)[nH]c1 showed an LC retention time [1] of 0.819 min and an LC retention time [2] of 1.96 min.

Work on NC(N)=NCC(=O)O yielded an LC retention time [1] of 0.801 min and an LC retention time [2] of 0.759 min.

CC(=O)NC(CCCCN)C(=O)O (stereo not given) showed an LC retention time [1] of 0.916 min and an LC retention time [2] of 0.903 min.

With NC(=O)C(N)Cc1c[nH]c2ccccc12 (stereo not given) the LC retention time [1] was 3.46 min and the LC retention time [2] was 2.44 min.

With COC(=O)c1ccc(O)c(OC)c1 the LC retention time [1] was 4.18 min and the LC retention time [2] was 4.36 min.

For CNC(=C[N+](=O)[O-])NCCSCc1ccc(CN(C)C)o1, the LC retention time [1] was 4.28 min and the LC retention time [2] was 2.32 min.
